# Columns and labels:
# [1] = Reactive oxygen species (ROS) assay under simulated sunlight; format: physicochemical; conditions: for Reactive Oxygen Species Generation Singlet oxygen / Reactive Oxygen Species Generation Superoxide: 200 µM, simulated sunlight 1 h, mean ± standard deviation (n = 3)
# Protocol: The ROS assay was designed to detect both singlet oxygen and superoxide generated from photo-irradiated chemicals. Briefly, singlet oxygen was measured in aqueous solution by spectrophotometrically monitoring the bleaching of p-nitrosodimethylaniline at 440 nm using imidazole as a selective acceptor of singlet oxygen. Samples containing the tested chemical (20 or 200 μM), p-nitrosodimethylaniline (50 μM), and imidazole (50 μM) in 20 mM sodium phosphate buffer (pH 7.4) were mixed in a tube. Each sample in 200 μL was transferred into a well of a plastic 96-well plate (clear, untreated, and flat-bottomed) and checked for precipitation under a microscope with an objective lens (×100) before light exposure. The plate was subjected to a measurement of absorbance at 440 nm using a microplate spectrophotometer. The plate was fixed in the quartz reaction container with a quartz cover and then irradiated with the simulated sunlight (ultraviolet A/B and visible light, 250 W/m^2, Suntest CPS plus, Atlas Material Testing Technology, Mount Prospect, IL, USA) for 1 h. After agitation on a plate shaker, the UV absorbance at 440 nm was measured. For the determination of superoxide, samples containing the test chemical (20 or 200 μM) and nitroblue tetrazolium (50 μM) in 20 mM sodium phosphate buffer were irradiated with the simulated sunlight for 1 h and the reduction in nitroblue tetrazolium was measured by the increase in absorbance at 560 nm in the same manner as the singlet oxygen determination. Experiments were performed in triplicate wells in three independent runs. As the final concentration, 200 μM test chemical solutions should be subjected to the ROS assay. However, when precipitation could be observed at 200 μM under the optical microscope, additional experiments should be performed under appropriate dilution (20, 50, or 100 μM).
# [2] = PAMPA (parallel artificial membrane permeability assay); format: in vitro ADME
# Protocol: In order to determine the passive membrane diffusion rates, the Corning Gentest Pre-coated PAMPA Plate System was used in the PAMPA test. […] The acceptor plate was then placed on top of the donor plate and incubated at 37 °C without agitation for 4 h. At the end of the incubation, the plates were separated and the solutions from each well of both the acceptor plate and the donor plate were transferred to 96-well plates and mixed with acetonitrile. The final concentrations of compound in both the donor wells and acceptor wells, as well as the concentrations of the initial donor solutions, were analyzed by LC-MS/MS. The permeability of the compound was calculated according to the previous report.
# [3] = design: method as in PMID 18185985; conditions: cited from earlier work
Reactive Oxygen Species Generation Singlet oxygen [1],Reactive Oxygen Species Generation Superoxide [1],SMILES,further results
–,–,"CCN1C=C\C(=C/C=C(\C=C/c2cc[n+](CC)c3ccccc23)c2cc[n+](CC)c3ccccc23)c2ccccc21.[I-].[I-] [NK-4, 1-ethyl-4-[(1Z,3E,5E)-1-(1-ethylquinolin-1-ium-4-yl)-5-(1-ethylquinolin-4-ylidene)penta-1,3-dien-3-yl]quinolin-1-ium;iodide]",phototoxicity conclusion from ROS assay [1]: less phototoxic
602 ± 7 ΔA440 × 1000,348 ± 12 ΔA560 × 1000,C=C[C@H]1C[N@@]2CC[C@H]1C[C@H]2[C@H](O)c1ccnc2ccc(OC)cc12 [Quinine],–
Not detected,Not detected,COc1cc(O)c(C(=O)c2ccccc2)cc1S(=O)(=O)O [Sulisobenzone],–
–,–,Cc1cc(=O)n(-c2ccccc2)n1C [antipyrine],"Papp at 4 h, 100 μM ([2]; PAMPA, read-out: PAMPA permeability of reference compound): 11 ×10⁻⁶ cm/s"
–,–,COCCc1ccc(OCC(O)CNC(C)C)cc1 (centres unmarked) [metoprolol],PAMPA permeability of reference compound ([2]; reference compound at 500 μM): 1.5 ×10⁻⁶ cm/s
–,–,O=C(O)c1cc(/N=N/c2ccc(S(=O)(=O)Nc3ccccn3)cc2)ccc1O [sulfasarazine],gastrointestinal absorption in human [3]: 13%
